Columns and labels:
Heterakis spumosa = assay: In vivo experiments with Heterakis spumosa in mice; design: key: 3 represents cure (no parasites detectable); 2 effective (<20% of parasites remaining); 1 trace effect (< of parasites remaining); 0 ineffective (>50% of parasites remaining); settings: orally 4 times, mice infected with H. spumosa
Description: In vivo experiments with Heterakis spumosa
For the experiments male mice (strain Bor CFW, 25-30 g of body weight on receipt) were housed in Macrolon cages (3 mice per cage) and provided with water and SNIFF rat feed (10-mm pellets) ad libitum. Mice were infected with H. spumosa by oral application of 90 embryonated eggs. The eggs were obtained from female Heterakis. isolated from mouse colon 40 days after infection followed by additional three weeks incubation at 37° C. The mice were treated orally 4 times with the compounds at the dosages of 1, 0.5, 0.25, 0.1, 0.05 and 0.025 mg/kg between days 46 and 49 after infection. Compounds were suspended in Cremophor EL. Infected control mice served as untreated controls which only received Cremophor EL. Mice were killed eight days after treatment (i.e. on day 57 after infection) with carbon dioxide and cecum and colon were dissected. The number of worms which have resided in the cecum and colon were counted macroscopically. The ratios of the number of expelled worms in percent of the total number of worms was defined as level of the anthelmintic activity. Activity was evaluated on a scale 0-3 where 3 represents cure (no parasites detectable), 2 effective (<20% of parasites remaining), 1 trace effect (< of parasites remaining) and 0 ineffective (>50% of parasites remaining).

[1] = system: Adult Ctenocephalides felis; assay: Test on cat fleas / oral absorption; format: in vivo; settings: after 24 hours
Description: Test on cat fleas/oral absorption
Test animals: Adult Ctenocephalides felis
Solvent: Dimethylsulfoxide (DMSO)
20 μl of this formulation are added to 4 ml of citrated cow's blood and stirred.
20 starved adult fleas (of “Georgi” species of Ctenocephalides felis) are introduced into a chamber (of a diameter of 5 cm) which is sealed with gauze at the top and bottom. A metal cylinder, whose base is sealed with parafilm, is placed on the chamber. […] Whereas the blood is heated to 37° C. a temperature of 25° C. is adjusted in the region of the flea chambers. Controls are mixed with the same volume of DMSO without the addition of any of the compounds. The test are repeated three times.
After 24 hours the mortality is determined in %.

Caenorhabditis elegans = assay: Antiparasitic activity against Caenorhabditis elegans, 96 well microplate (MIC); format: in vivo; settings: 20° C., observed after 24 and 48 hours
Excerpt: (§1) As model insects for simple determination of antiparasitic and insecticidal activities, those insects are desired which can be easily obtained and bred in laboratories, and have no pathogenicity to a human. Caenorhabditis elegans, an unparasitic eelworm widely used in experiments of genetics, was used as a typical steam worm, and Artemia salina used as feed for tropical fish and named Brine shrimp, was used instead of insects.
Escherichia. coli for the feed of Caenorhabditis elegans (mutant having uracil requirement) was inoculated in a seed medium for E. coli to which a small amount of uracil was added, and cultured with shaking at 27° C. for 1 day. A petri dish of 6 cm diameter was filled with 10 ml of an agar medium for eelworm proliferation, and the medium was solidified. Then 0.5 ml of the culture of E. coli was spread over the medium in the dish, and the dish was incubated at 37° C. to proliferate E. coli. A piece of the agar was collected with a platinum loop from a petri dish in which Caenorhabditis elegans successfully proliferated, and inoculated in petri dishes in which E. coli was proliferated. The petri dishes were incubated at 20° C. to proliferate Caenorhabditis elegans. Since the life of eelworm is about 2 weeks, subculture was carried out every once a week. The eelworms grown with spread on the surface of the petri dish after 3 to 5 days from subculture were used for the experiments.
The agar medium for eelworm proliferation was prepared by mixing the solutions in the following proportion: Solution A: 100 ml, Solution B: 0.1 ml, Solution C: 0.05 ml, Solution D: 0.1 ml and Solution E: 2.5 ml (without pH adjustment), and dispensing each 10 ml portion into petri dishes of 60×15 mm.
In distilled water, 2.0% of bact-trypton (DIFCO Co.), 0.55% of sodium chloride and 0.001% of uracil (SIGMA Co., pH 7.4) were dissolved, and the solution was sterilized in an autoclave at 121° C. for 20 minutes.
(§2) Each well of a 96 well microplate was filled with the solution of the test compound (methanol as a solvent), and the solvent was removed using a vacuum pump, then 250 μl of the assay medium was added to each wells (the assay medium was prepared by dissolving 7.5 mM sodium hydrogencarbonate, 7.5 mM potassium chloride, 7.5 mM calcium chloride dihydrate and 7.5 mM magnesium sulfate heptahydrate in distilled water and adding 0.01% of lecithin thereto), and then the microplate was shaken using a microplate mixer for 15 minutes. To each well, a few individuals of Caenorhabditis elegans were added by softly rubbing the surface of the agar using a toothpick, or a few individuals of Artemia salina were added together with 50 μl of the buffer. The microplate was incubated at 20° C., and then the insects were observed after 24 and 48 hours under a microscope (magnification of 40×). The results were compared to those obtained without addition of the test compound, and evaluated by 4 grades.
(§3) The evaluation results were shown by indications of 4 grades from 0 to 3.
(§4) 1: A little week movements
(§5) Of the 4 grades, Indications 3 and 2 were judged as effective, and Indications 1 and 0 as ineffective. In Table 9, the values for each compound are minimum inhibitory concentrations (MIC) which were required to give Indication 2 (or 3) for Caenorhabditis elegans or Artemia salina. In Table 9, Caenorhabditis elegans and Artemia salina are abbreviated as C.E. and A.S., respectively.

Artemia salina = assay: Insecticidal model activity against Artemia salina (brine shrimp), 96 well microplate (MIC); format: in vivo; settings: 20° C., observed after 24 and 48 hours
Excerpt: as §1
To a buffer for Artemia salina (obtained by dissolving 0.24% of Tris, 2.57% of sodium chloride, 0.47% of magnesium chloride, 0.07% of potassium chloride, 0.02% of sodium carbonate, 0.64% of magnesium sulfate and 0.11% of calcium chloride in distilled water and adjusting the pH to 7.1 with hydrochloric acid), dried eggs of Artemia salina [Tetra Brine Shrimp Eggs, Warner Lambert Co.] were added. The noprius larvae 1 or 2 days after hatching were used for the experiments.
as §2, §3, §4, §5

Lucilia cuprina larvae = assay: Blowfly larvae test / development-inhibiting activity; format: in vivo
Description: Blowfly larvae test/Development-inhibiting activity
Test animals: Lucilia cuprina larvae
(§6) Solvent: Dimethylsulfoxide
20 mg of active compound are dissolved in one ml of dimethylsulfoxide. In order to prepare a suitable formulation the active compound solution is diluted with water to the concentration required in each case.
Approx. 20 Lucilia cuprina larvae are introduced into a test tube containing approx. 1 cm^3 of horse-meat and 0.5 ml of the active compound preparation to be tested. After 48 hours the activity of the active compound preparation is determined. The test tubes are transferred to beakers with a sand-covered base. After a further 2 days the test tubes are removed and the pupae counted.
The activity of the active compound preparation is assessed according to the number of flies which have hatched after 1.5 times the development period of an untreated control. 100% means that no flies have hatched: 0% means that all of the flies have hatched normally.

Nematospiroides dubius = assay: In vivo experiments with Nematospiroides dubius in mice; design: key: 3 represents cure (no parasites detectable); 2 effective (<20% of parasites remaining); 1 trace effect (< of parasites remaining); 0 ineffective (>50% of parasites remaining); settings: orally 4 times, mice infected with N. dubius larvae
[2] = system: Third larval stages of Periplaneta americana; assay: Test on cockroaches, immersion process; format: in vivo; settings: immersion 60 seconds, time of reading not stated (2 and 24 hours, 7 days)
Description: Test on cockroached—Immersion process
Test animals: Third larval stages of Periplaneta americana
as §6
20 mg of active compound are dissolved in one ml of dimethylsulfoxide. In order to prepare a suitable formulation the solution of active compound is diluted with water to the concentration required in each case.
20 ml of this preparation of active compound are pipetted into tubes (of a diameter of 1.5 cm and a height of 10 cm). 4 cockroach larvae are intoxicated with CO2 and transferred to a tube (of a diameter of 1.2 cm and a height of 9 cm) containing 3 holes (in the base and 5 cm below the upper rim). The tube is sealed with a stopper and kept at room temperature for 30 minutes until all of the cockroach larvae again display normal activity. The tube is immersed in the active compound formulation for 60 seconds, during which period all of the cockroach larvae are completely coverd. After the liquid has drained off the cockroach larvae are transferred to filter discs in cans made of PP (of a diameter of 9.7 cm and a height of 8 cm height).
After 2 and 24 hours and after 7 days the activity of the active compound formulation is determined. 100% means that all of the cockroach larvae have been destroyed; 0% means that none of the cockroach larvae have been destroyed.

[3] = 100 ppm in citrated cow's blood

## CCOC(=O)C=C1C(C)OC(OC2C(C)OC(OC3C(C)=CCC4CC(CC5(C=CC(C)C(C(C)CC)O5)O4)OC(=O)C4C=C(C)C(O)C5OCC(=CC=CC3C)C45O)CC2OC)CC1OC (stereo not shown) [Compound 2]
Heterakis spumosa; 0.05 mg/kg
  anthelmintic activity score (scale 0-3): 2 (2 effective (<20% of parasites remaining))
Heterakis spumosa; 0.1 mg/kg
  anthelmintic activity score (scale 0-3): 3
Heterakis spumosa; 0.25 mg/kg
  anthelmintic activity score (scale 0-3): 3
Heterakis spumosa; 0.5 mg/kg
  anthelmintic activity score (scale 0-3): 3
Heterakis spumosa; 1 mg/kg
  anthelmintic activity score (scale 0-3): 3
[1]; 10 ppm in citrated cow's blood
  mortality of fleas: 50%
[1]; [3]
  mortality of fleas: 100%
Caenorhabditis elegans
  C.E. minimum inhibitory concentration (MIC) required to give Indication 2 (or 3): 0.01 µg/mL
Artemia salina
  A.S. minimum inhibitory concentration (MIC) required to give Indication 2 (or 3): 0.01 µg/mL

## CCC(C)C1OC2(C=CC1C)CC1CC(CC=C(C)C(OC3CC(OC)C(OC4CC(OC)C(=CC(=O)OC)C(C)O4)C(C)O3)C(C)C=CC=C3COC4C(O)C(C)=CC(C(=O)O1)C34O)O2 (stereo not shown) [Compound 7]
Lucilia cuprina larvae; 1 ppm
  development-inhibiting activity (100% = no flies have hatched): 100%
Lucilia cuprina larvae; 10 ppm
  development-inhibiting activity (100% = no flies have hatched): 100%
Lucilia cuprina larvae; 100 ppm
  development-inhibiting activity (100% = no flies have hatched): 100%
[1]; 10 ppm in citrated cow's blood
  mortality of fleas: 61%
[1]; [3]
  mortality of fleas: 99%
Caenorhabditis elegans
  C.E. minimum inhibitory concentration (MIC) required to give Indication 2 (or 3): 0.01 µg/mL
Artemia salina
  A.S. minimum inhibitory concentration (MIC) required to give Indication 2 (or 3): 0.002 µg/mL

## CCC(C)C1OC2(C=CC1C)CC1CC(CC=C(C)C(OC3CC(OC)C(OC4CC(OC)C(=CCOC(=O)c5cccnc5)C(C)O4)C(C)O3)C(C)C=CC=C3COC4C(O)C(C)=CC(C(=O)O1)C34O)O2 (stereo not shown) [Compound 21]
Lucilia cuprina larvae; 1 ppm
  development-inhibiting activity (100% = no flies have hatched): 100%
Lucilia cuprina larvae; 10 ppm
  development-inhibiting activity (100% = no flies have hatched): 100%
Lucilia cuprina larvae; 100 ppm
  development-inhibiting activity (100% = no flies have hatched): 100%
Caenorhabditis elegans
  C.E. minimum inhibitory concentration (MIC) required to give Indication 2 (or 3): 0.01 µg/mL
Artemia salina
  A.S. minimum inhibitory concentration (MIC) required to give Indication 2 (or 3): 0.002 µg/mL

## CCC(C)C1OC2(C=CC1C)CC1CC(CC=C(C)C(OC3CC(OC)C(OC4CC(OC)C(=CCOC5CCCCO5)C(C)O4)C(C)O3)C(C)C=CC=C3COC4C(O)C(C)=CC(C(=O)O1)C34O)O2 (stereo not shown) [Compound 31]
Heterakis spumosa; 0.1 mg/kg
  anthelmintic activity score (scale 0-3): 2 (2 effective (<20% of parasites remaining))
Heterakis spumosa; 0.25 mg/kg
  anthelmintic activity score (scale 0-3): 2 (2 effective (<20% of parasites remaining))
Heterakis spumosa; 0.5 mg/kg
  anthelmintic activity score (scale 0-3): 3
Heterakis spumosa; 1 mg/kg
  anthelmintic activity score (scale 0-3): 3
Caenorhabditis elegans
  C.E. minimum inhibitory concentration (MIC) required to give Indication 2 (or 3): 0.05 µg/mL
Artemia salina
  A.S. minimum inhibitory concentration (MIC) required to give Indication 2 (or 3): 0.01 µg/mL

## CCC(C)C1OC2(C=CC1C)CC1CC(CC=C(C)C(OC3CC(OC)C(OC4CC(OC)C(=CC(=O)O)C(C)O4)C(C)O3)C(C)C=CC=C3COC4C(=NO)C(C)=CC(C(=O)O1)C34O)O2 (stereo not shown) [Compound 58]
Nematospiroides dubius; 0.5 mg/kg
  anthelmintic activity score (scale 0-3): 3
Nematospiroides dubius; 1 mg/kg
  anthelmintic activity score (scale 0-3): 3
[1]; 10 ppm in citrated cow's blood
  mortality of fleas: 73%
[1]; [3]
  mortality of fleas: 100%

## CCC(C)C1OC2(C=CC1C)CC1CC(CC=C(C)C(OC3CC(OC)C(OC4CC(OC)C(=CC=CC(=O)O)C(C)O4)C(C)O3)C(C)C=CC=C3COC4C(O)C(C)=CC(C(=O)O1)C34O)O2 (stereo not shown) [Compound 66]
[2]; 1 ppm
  activity (100% = all of the cockroach larvae destroyed): 75%
[2]; 10 ppm
  activity (100% = all of the cockroach larvae destroyed): 100%
[2]; 100 ppm
  activity (100% = all of the cockroach larvae destroyed): 100%

## CCC(C)C1OC2(CC3CC(CC=C(C)C(OC4CC(OC)C(OC5CC(OC)C(=CC(=O)OC)C(C)O5)C(C)O4)C(C)C=CC=C4COC5C(O)C(C)=CC(C(=O)O3)C45O)O2)CC(O)C1C (stereo not shown) [Compound 78]
[2]; 1 ppm
  activity (100% = all of the cockroach larvae destroyed): 50%
[2]; 10 ppm
  activity (100% = all of the cockroach larvae destroyed): 50%
[2]; 100 ppm
  activity (100% = all of the cockroach larvae destroyed): 100%

Source: US6605595B1, “Avermectin derivatives” (The Kitasato Institute, priority 1999, dated 2003)
